In experiment [1] the test system is Mycoplasmoides gallisepticum. In words: Antimycoplasmal activity against Mycoplasma gallisepticum K514 without the extra addition of copper. The class given is functional.
Experiment [2] has as its system Mycoplasmoides gallisepticum. In words: Antimycoplasmal activity against Mycoplasma gallisepticum K514 with the extra addition of copper (40 uM). The class given is functional.

In brackets after ≈: the same amount, converted by molar mass.

As to `Cc1ccc(C)c(C(=O)Nc2nc(-c3ccccn3)cc3ccccc23)c1`, the minimal inhibitory concentration (MIC) in experiment [1] was more than 100 µM; in experiment [2], 0.39 µM (≈ 0.138 µg/mL).

On to `Cc1ccc(C(=O)Nc2nc(-c3ccccn3)cc3ccccc23)c(C)c1`, for which the MIC was more than 100 µM in experiment [1] and 0.39 µM (≈ 0.138 µg/mL) in experiment [2].

For the compound `Cc1cc(C)cc(C(=O)Nc2nc(-c3ccccn3)cc3ccccc23)c1`, the MIC is more than 100 µM in experiment [1] and 0.39 µM (≈ 0.138 µg/mL) in experiment [2].

For `CC(=O)Nc1nc(-c2ccccn2)cc2ccccc12`, the MIC in experiment [1] is more than 25 µM; in experiment [2] it was 1.9 µM (≈ 0.5 µg/mL).

For the compound `O=C(Nc1nc(-c2ccccn2)cc2ccccc12)c1ccccc1`, the MIC in experiment [1] came to 12.3 µM (≈ 4.01 µg/mL); in experiment [2], 0.1 µM (≈ 0.0325 µg/mL).

With `CC(C)C(=O)Nc1nc(-c2ccccn2)cc2ccccc12`, the MIC was more than 25 µM in experiment [1] and 0.22 µM (≈ 0.0641 µg/mL) in experiment [2].

As for `Nc1nc(-c2ccccn2)cc2ccccc12`, the MIC came out at 452 µM (≈ 100 µg/mL) in experiment [1] and 0.45 µM (≈ 0.0996 µg/mL) in experiment [2].

`Cc1ccc(C(=O)Nc2nc(-c3ccccn3)cc3ccccc23)cc1`: the values for the MIC in experiment [1] and in experiment [2] were more than 160 µM and 0.19 µM (≈ 0.0645 µg/mL), respectively.

Consider `O=C(Nc1nc(-c2ccccn2)cc2ccccc12)c1ccc(Cl)cc1`, for which the MIC in experiment [1] is more than 160 µM; in experiment [2] it was 0.35 µM (≈ 0.126 µg/mL).

For `Cc1cccc(C(=O)Nc2nc(-c3ccccn3)cc3ccccc23)c1`, the results for the MIC in experiment [1] and in experiment [2] were more than 23 µM and 0.09 µM (≈ 0.0305 µg/mL), respectively.

In the case of `Cc1cccc(C)c1C(=O)Nc1nc(-c2ccccn2)cc2ccccc12`, the MIC in experiment [1] was more than 25 µM; in experiment [2] it was 0.78 µM (≈ 0.276 µg/mL).

For `COc1ccc(C(=O)Nc2nc(-c3ccccn3)cc3ccccc23)cc1`, the figures for the MIC in experiment [1] and in experiment [2] were more than 160 µM and 0.18 µM (≈ 0.064 µg/mL), respectively.

In the case of `CCCCCCCCCC(=O)Nc1nc(-c2ccccn2)cc2ccccc12`, the figures for the MIC in experiment [1] and in experiment [2] were more than 170 µM and 0.34 µM (≈ 0.128 µg/mL), respectively.

On to `COc1cccc(C(=O)Nc2nc(-c3ccccn3)cc3ccccc23)c1`, for which the MIC is more than 23 µM in experiment [1] and 0.18 µM (≈ 0.064 µg/mL) in experiment [2].

In the case of `CC(C)(C)C(=O)Nc1nc(-c2ccccn2)cc2ccccc12`, the MIC in experiment [1] was more than 25 µM; in experiment [2], 0.21 µM (≈ 0.0641 µg/mL).

As to `CC[C@H]1OC(=O)C[C@@H](O)[C@H](C)[C@@H](O[C@@H]2O[C@H](C)[C@@H](O[C@H]3C[C@@](C)(O)[C@@H](O)[C@H](C)O3)[C@H](N(C)C)[C@H]2O)[C@@H](CC=O)C[C@@H](C)C(=O)/C=C/C(C)=C/[C@@H]1CO[C@@H]1O[C@H](C)[C@@H](O)[C@@H](OC)[C@H]1OC` [TYLOSIN], the minimal inhibitory concentration (MIC) in experiment [1] and in experiment [2] was 0.1 µM (≈ 0.0916 µg/mL) each time.

`CCCCC(CC)C(=O)Nc1nc(-c2ccccn2)cc2ccccc12` (stereo not drawn): the MIC in experiment [1] is more than 170 µM; in experiment [2] it was 0.36 µM (≈ 0.125 µg/mL).

Take CUPRIC SULFATE: it took 400 µM to inhibit growth in experiment [1] (MIC).

With `Cc1ccc(C(=O)Nc2nc(-c3ccccn3)cc3ccccc23)cc1C`, the MIC was more than 100 µM in experiment [1] and 0.39 µM (≈ 0.138 µg/mL) in experiment [2].

For `O=C(Nc1nc(-c2ccccn2)cc2ccccc12)c1ccc(Cl)c(Cl)c1`, the MIC is more than 160 µM in experiment [1] and 0.64 µM (≈ 0.252 µg/mL) in experiment [2].

Regarding `CCC(=O)Nc1nc(-c2ccccn2)cc2ccccc12`, the MIC in experiment [1] is more than 25 µM; in experiment [2], 0.45 µM (≈ 0.125 µg/mL).

On to `O=C(Nc1nc(-c2ccccn2)cc2ccccc12)c1cccc(Cl)c1`, for which the MIC in experiment [1] was more than 23 µM; in experiment [2] it was 0.35 µM (≈ 0.126 µg/mL).

The term MIC denotes the lowest concentration found to suppress growth. Read a high MIC as a less susceptible organism.

(Values after ChEMBL document CHEMBL1124073, “Synthesis and copper-dependent antimycoplasmal activity of 1-amino-3-(2-pyridyl)isoquinoline derivatives. 1. Amides” (1988).)
